Measurements taken from patent publication US5665738A, “Imidazole derivatives and processes for the preparation thereof” (Korea Research Institute of Chemical Technology, priority 1994, dated 1997).

Test system: angiotensin II receptor
Assay: Angiotensin II receptor binding assay ([3H] angiotensin II displacement)
Conditions: 60 minutes at 25° C., pH 7.2, test concentration not given
Description: The inventive compounds were tested to measure their angiotensin II receptor binding capacity as follows.
1. Angiotensin II receptor binding assay
In accordance with the procedure disclosed in Chiu, A. T. et al., Eur. J. Pharm., 157, 13 ([…])t a ligand marked with a radioistope was reacted with an angiotensin II receptor and the reactant was filtered with a glass fiber to remove unreacted ligand. After washing the filter, the amount of the remaining isotope was measured to determine the binding activity of the ligand, as described below in detail.
(i) Isolation of angiotensin II receptor
Sprague-Dawley rats and Wistar rats of 250 to 350 g (from The Korea Research Institute of Chemical Technology) were tested and the test procedures were carried out at 4° C., unless otherwise specified. Adrenal gland was separated from the Sprague-Dawley rats (liver, in the case of Wistar rats) into cortex and medulla. The separated adrenal cortex and medulla were washed with a sucrose buffer solution (0.2M sucrose, 1 mM EDTA, 10 mM Tris, pH 7.2) and homogenized in the same buffer solution by using a Teflon pestle and a Brinkmann homogenizer. The homogenates were centrifuged at 3,000× g for 10 minutes to remove precipitates and further centrifuged at 12,000× g for 13 minutes. The final supernatants were centrifuged at 102,000× g for 1 hour to obtain precipitates, which were washed with a Tris buffer solution (50 mM Tris, 5 mM MgCl2, pH 7.2) and re-centrifuged at 102,000× g for 1 hour. The resulting precipitates were immediately processed at the following step or stored at -70° C.
The precipitates were suspended in a Tris buffer solution. The amount of protein was determined by using a Bio-Rad DC protein analyzing kit and the protein concentration was adjusted to the amounts of: 0.2 to 0.3 mg/ml (Sprague-Dawley rat: adrenal cortex), 1.5 to 2.0 mg/ml (Sprague-Dawley rat: adrenal medulla), and 1.5 to 2.0 mg/ml (Wistar rat: liver). To the suspension, bovine serum albumin (BSA) was added to a concentration of 0.25 wt % and the resultant was immediately processed at the following step or stored at -70° C.
(ii) Measurement of angiotensin II receptor binding capacity
50 μl (based on ligand) of [^3 H] angiotensin II (NEN, NET-446) and 10 μl of each of the test compounds with various concentrations were added to the buffer solution (50 mM Tris (pH 7.2), 5 mM MgCl2, 0.25% BSA) to adjust the final volume to be 0.5 ml. Losartan (Dup 753), which is disclosed in EP No. 400,974 issued to Merck, was used as the control compound. 100 μl of the receptor suspension was added thereto and the resulting solution was reacted for 60 minutes while stirring in a water bath at 25° C. 3 ml of cold buffer solution for analysis was added to cease the reaction. The isotope which was bound to the receptor was isolated from the resultant by using Brandel Cell Harvester System with Whatman glass fiber GF/C. After washing the filter, the radioactivity of the filter was determined by using a liquid scintillation counter. Binding inhibition (%) of the test compound was calculated as follows:
Binding Inhibition (%)=[{(T-B)-(S-B)}/(T-B)]×100
wherein T is the radioactivity (cpm) of the reaction product untreated with the test compound, S is the radioactivity (cpm) of the reaction product treated with the test compound, and B is the radioactivity (cpm) of blank test.

Row | Structure (SMILES) | Binding Inhibition (%)
1 | CCCCc1nc(Cl)c(C(=O)c2ccc(CN(CC)CC)c[n+]2[O-])n1Cc1ccc(-c2ccccc2-c2nn[nH]n2)cc1 [Compound 31, {2-butyl-5-chloro-3-[(2'-(1H-tetrazol-5-yl)biphenyl-4-yl)methyl]-3H-imidazol-4-yl}[5-(diethylamino)methyl-1-oxypyridin-2-yl]methanone] | 97.8
2 | CCCCc1nc(Cl)c(C(O)c2cccc(Br)[n+]2[O-])n1Cc1ccc(-c2ccccc2-c2nn[nH]n2)cc1 (centres unmarked) [Compound 16] | 62.9
3 | CCCCc1nc(Cl)c(C(=O)c2ccc(C[N+]([O-])(CC)CC)c[n+]2[O-])n1Cc1ccc(-c2ccccc2-c2nn[nH]n2)cc1 [Compound 32, {2-butyl-5-chloro-3-[(2'-(1H-tetrazol-5-yl)biphenyl-4-yl)methyl]-3H-imidazol-4-yl}[5-((diethyl)(oxy)amino)methyl-1-oxypyridin-2-yl]methanone] | 98.8
4 | CCCCc1nc(Cl)c(C(=O)c2cccc(CN(CC)CC)[n+]2[O-])n1Cc1ccc(-c2ccccc2-c2nn[nH]n2)cc1 [Compound 10, {2-butyl-5-chloro-3-[(2'-(1H-tetrazol-5-yl)biphenyl-4-yl)methyl]-3H-imidazol-4-yl}[6-(diethylamino)methyl-1-oxypyridin-2-yl]methanone] | 91.1
5 | CCCCc1nc(Cl)c(C(=O)c2cccc(C(=O)N(CC)CC)[n+]2[O-])n1Cc1ccc(-c2ccccc2-c2nn[nH]n2)cc1 [Compound 37, {2-butyl-5-chloro-3-[(2'-(1H-tetrazol-5-yl)biphenyl-4-yl)methyl]-3H-imidazol-4-yl}[6-(diethylamino)carbonyl-1-oxypyridin-2-yl]methanone] | 92.8
6 | CCCCc1nc(Cl)c(C(=O)c2cccc(C(C)O)[n+]2[O-])n1Cc1ccc(-c2ccccc2-c2nn[nH]n2)cc1 (centres unmarked) [Compound 19, {2-butyl-5-chloro-3-[(2'-(1H-tetrazol-5-yl)biphenyl-4-yl)methyl]-3H-imidazol-4-yl}[6-(1-hydroxyethyl)-1-oxypyridin-2-yl]methanone] | 88.7

Further lines, results first:

Row | Binding Inhibition (%) | Structure (SMILES)
7 | 50.3 | CCCCc1nc(Cl)c(C(=O)c2cccc(Br)n2)n1Cc1ccc(-c2ccccc2-c2nnn[nH]2)cc1 [Compound 17, {2-butyl-5-chloro-3-[(2'-(1H-tetrazol-5-yl)biphenyl-4-yl)methyl]-3H-imidazol-4-yl}(6-bromopyridin-2-yl)methanone]
8 | 91.2 | CCCCc1nc(Cl)c(C(=O)c2cccc(C(OC)OC)n2)n1Cc1ccc(-c2ccccc2-c2nnn[nH]2)cc1 [Compound 6, {2-butyl-5-chloro-3-[(2'-(1H-tetrazol-5-yl)biphenyl-4-yl)methyl]-3H-imidazol-4-yl}[6-(dimethoxymethyl)pyridin-2-yl]methanone]
